From US20240316130A1 (priority 2023, published 2024)
Entries after “also recorded” stand apart in the source; their conditions may differ.

Tested on: ASS1^KO B16F10 cells
Type: cell-based, murine

SMILES	rescue of MYXV replication by supplement
NC(=NCCCC(N)C(=O)O)NC(CC(=O)O)C(=O)O (centres unmarked) [argininosuccinate]	support myxoma virus replication; also recorded: remained rescuable
NC(=O)NCCC[C@H](N)C(=O)O [citrulline, L-Citrulline]	not able to divide or support myxoma virus replication; also recorded: could no longer be rescued
